Reference: patent US9499509B2, “Dihydrochalcone derivatives and their use as antibiotic agents” (UNIVERSITÉ DU QUÉBEC À CHICOUTIMI, priority 2012, dated 2016)
Counter-ions that a name gives are not always drawn. Like-named read-outs stand apart in the source and are kept apart here.

Experiments:
[1] = system: methicillin-resistant Staphylococcus aureus (MRSA) strains; assay: Antibiotic assay (resazurin, Example 1), MRSA strains; assay type: cell-based; details: Staphylococcus aureus, MRSA
From the text: (§1) Bacteria Strain. […] The MRSA were obtained as further described below.
(§2) Antibiotic agents. Cyprofloxacin and erythromycin were provided by Sigma-Aldrich. Gentamicin sulfate and vancomycin hydrochloride were provided by Calbiochem.
Isolation and identification of methicillin-resistant Staphylococcus aureus (MRSA) strains. From March 2007 to March 2008, 35 screening swabs from nares (n=31), throat (n=3), Groin pus (n=1) were obtained from patients hospitalized at Chicoutimi hospital. Identification of S. aureus was performed using the Slidex Staph-Kit (bioMerieux Vitek, Inc., Hazelwood, Mo.) according to the manufacturer's instructions. Quality control was performed with MRSA strain ATCC 43300 and S. aureus strain ATCC 25923. In addition, S. aureus profile was determined with API Staph test strip with bacterial suspension of saline McFarland of 0.5 (bioMerieux, Durham, N.C.) according to the manufacturer's protocol. API Staph strips were held for 24 h before the results were read. A latex agglutination (SLIDEX) test detecting methicilin resistance in Staphylococci based on the production of low-affinity PBP2a, which is encoded by the mecA gene was performed on all strains. An antibiogram was also performed to confirm the identification of MRSA strains using disk diffusion test.
Antibiotic susceptibility testing using disk diffusion method. The antimicrobial activity of different classes of antibiotics of the potential MRSA was determined by diffusion method (Kirby-Bauer) as described by NCCLS. The antibiotics tested included: penicillin (10 units), amoxicillin/clavulanic acid (20/10 μg), ciprofloxacin (5 μg), moxifloxacin (5 μg), levofloxacin (5 μg), clindamycin (15 μg), erythromycin (15 μg), cefoxitin (30 μg), linezolid (30 μg), trimethoprim/sulfomethoxazole (1.25/23.75 μg), rifampicin (5 μg), gentamicin (10 μg) and vancomycin (30 μg). The agar medium had pH 7.2 to 7.4 before inoculing potentiel MRSA. The antibiotics were maintained at 8° C. or lower −14° C. according to manufacturer's recommendations. The pure culture was inoculated on a non-selective plate for 18-24 h. Each colony was collected with a wire loop and transfered the growth to a tube containing 4 to 5 mL of a tryptic-soy broth. The inoculum density was standarized with BaSO4 using 0.5 McFarland standard. All strains were incubated at 37° C. until it achieves or exceeds the turbidity of 0.5 McFarland standard. Inoculation of the dried surface (Muller-Hinton agar plate) by streaking the swab over the entire sterile agar surface. This procedure was repeated two more times. After 15 min, the appropriate disk were applied on the surface with a sterile forceps. The inverted plates was placed in a incubator at 37° C./air/16 to 18 h or 24 h for vancomycin. The inhibition zones were measured with a millimetric ruler. Interpretation of zone sizes by references of the manufacturer. Quality control organisms used were ATCC strains number 25923.
MRSA. Ten (10) strains of MRSA obtained as described above were tested along with an S. aureus wild type (WT) strain (ATCC25923).

S. aureus = assay: Antibiotic assay (resazurin, Example 1), S. aureus strains of Table 3; assay type: cell-based, Staphylococcus aureus; details: Staphylococcus aureus
From the text: as §1, §2

Streptococcus pneumoniae = assay: Antibiotic assay (resazurin, Example 1), Streptococcus pneumoniae; assay type: cell-based; details: for IC50 / MIC: Streptococcus pneumoniae
Procedure: as §1, §2
(§3) Five additional strains were tested: Streptococcus pneumoniae, Streptococcus agalactiae, Streptococcus pyogenes, Enterococcus faecalis and Corynebacterium jeikeium.

Enterococcus faecalis = assay: Antibiotic assay (resazurin, Example 1), Enterococcus faecalis; assay type: cell-based; details: Enterococcus faecalis
Procedure: as §1, §2, §3

Corynebacterium jeikeium = assay: Antibiotic assay (resazurin, Example 1), Corynebacterium jeikeium; assay type: cell-based; details: Corynebacterium jeikeium
Procedure: as §1, §2, §3

Streptococcus pyogenes = assay: Antibiotic assay (resazurin, Example 1), Streptococcus pyogenes; assay type: cell-based; details: Streptococcus pyogenes
Procedure: as §1, §2, §3

Streptococcus agalactiae = assay: Antibiotic assay (resazurin, Example 1), Streptococcus agalactiae; assay type: cell-based; details: Streptococcus agalactiae
Procedure: as §1, §2, §3

S. epidermidis = assay: Antibiotic assay (resazurin, Example 1), S. epidermidis strains; details: Staphylococcus epidermidis

## CN[C@H](CC(C)C)C(=O)N[C@H]1C(=O)N[C@@H](CC(N)=O)C(=O)N[C@H]2C(=O)N[C@H]3C(=O)N[C@H](C(=O)N[C@H](C(=O)O)c4cc(O)cc(O)c4-c4cc3ccc4O)[C@H](O)c3ccc(c(Cl)c3)Oc3cc2cc(c3O[C@@H]2O[C@H](CO)[C@@H](O)[C@H](O)[C@H]2O[C@H]2C[C@](C)(N)[C@H](O)[C@H](C)O2)Oc2ccc(cc2Cl)[C@H]1O [Vancomycin, vancomycin hydrochloride, reference compound]
[1]; MRSA1
  IC50: 80 ± 10 nM
[1]; MRSA2
  IC50: 80 ± 10 nM
[1]; MRSA3
  IC50: 64 ± 7 nM
[1]; MRSA4
  IC50: 69 ± 9 nM
[1]; MRSA5
  IC50: 62 ± 6 nM
[1]; MRSA6
  IC50: 80 ± 10 nM
[1]; MRSA7
  IC50: 80 ± 10 nM
[1]; MRSA8
  IC50: 80 ± 10 nM
[1]; MRSA9
  IC50: 80 ± 10 nM
[1]; MRSA10
  IC50: 59 ± 6 nM
[1]; read-out: Minimum Inhibitory Concentration (MIC), MRSA1
  MIC: 0.12 µM
[1]; read-out: Minimum Inhibitory Concentration (MIC), MRSA2
  MIC: 0.13 µM
[1]; read-out: Minimum Inhibitory Concentration (MIC), MRSA3
  MIC: 0.1 µM
[1]; read-out: Minimum Inhibitory Concentration (MIC), MRSA4
  MIC: 0.1 µM
[1]; read-out: Minimum Inhibitory Concentration (MIC), MRSA5
  MIC: 0.09 µM
[1]; read-out: Minimum Inhibitory Concentration (MIC), MRSA6
  MIC: 0.2 µM
[1]; read-out: Minimum Inhibitory Concentration (MIC), MRSA7
  MIC: 0.11 µM
[1]; read-out: Minimum Inhibitory Concentration (MIC), MRSA8
  MIC: 0.11 µM
[1]; read-out: Minimum Inhibitory Concentration (MIC), MRSA9
  MIC: 0.11 µM
[1]; read-out: Minimum Inhibitory Concentration (MIC), MRSA10
  MIC: 0.09 µM
S. aureus; S. aureus 14094
  IC50: 280 ± 40 nM
S. aureus; S. aureus 14108
  IC50: 270 ± 40 nM
S. aureus; S. aureus 14118
  IC50: 240 ± 30 nM
S. aureus; S. aureus 14154
  IC50: 280 ± 50 nM
S. aureus; read-out: Minimum Inhibitory Concentration (MIC), S. aureus 14094
  MIC: 0.41 µM
S. aureus; read-out: Minimum Inhibitory Concentration (MIC), S. aureus 14108
  MIC: 0.44 µM
S. aureus; read-out: Minimum Inhibitory Concentration (MIC), S. aureus 14118
  MIC: 0.38 µM
S. aureus; read-out: Minimum Inhibitory Concentration (MIC), S. aureus 14154
  MIC: 0.45 µM
Streptococcus pneumoniae; Strep. pneumoniae 14070
  IC50: 90 ± 40 nM
Streptococcus pneumoniae; Strep. pneumoniae 14112
  IC50: 94 ± 8 nM
Streptococcus pneumoniae; Strep. pneumoniae 14138
  IC50: 130 ± 80 nM
Streptococcus pneumoniae; Strep. pneumoniae 14144
  IC50: > 10000 nM
Streptococcus pneumoniae; Strep. pneumoniae 14148
  IC50: 84 ± 6 nM
Streptococcus pneumoniae; read-out: Minimum Inhibitory Concentration (MIC), Strep. pneumoniae 14070
  MIC: 8.37 µM
Streptococcus pneumoniae; read-out: Minimum Inhibitory Concentration (MIC), Strep. pneumoniae 14112
  MIC: 0.16 µM
Streptococcus pneumoniae; read-out: Minimum Inhibitory Concentration (MIC), Strep. pneumoniae 14138
  MIC: > 10 µM
Streptococcus pneumoniae; read-out: Minimum Inhibitory Concentration (MIC), Strep. pneumoniae 14144
  MIC: > 10 µM
Streptococcus pneumoniae; read-out: Minimum Inhibitory Concentration (MIC), Strep. pneumoniae 14148
  MIC: 0.2 µM
Streptococcus pneumoniae; in words
  activity against Streptococcus pneumoniae strain 14138: had an activity
Enterococcus faecalis; Ent. Faecalis 14078
  IC50: 700 ± 100 nM
Enterococcus faecalis; Ent. Faecalis 14115
  IC50: > 10000 nM
Enterococcus faecalis; read-out: Minimum Inhibitory Concentration (MIC), Ent. Faecalis 14078
  MIC: 5.59 µM
Enterococcus faecalis; read-out: Minimum Inhibitory Concentration (MIC), Ent. Faecalis 14115
  MIC: > 10 µM
Corynebacterium jeikeium
  IC50: 220 ± 30 nM
Corynebacterium jeikeium; read-out: Minimum Inhibitory Concentration (MIC)
  MIC: 0.35 µM
Streptococcus pyogenes; Strep. pyogenes 14149
  IC50: 117 ± 9 nM
Streptococcus pyogenes; Strep. pyogenes 14152
  IC50: 80 ± 20 nM
Streptococcus pyogenes; read-out: Minimum Inhibitory Concentration (MIC), Strep. pyogenes 14149
  MIC: 0.17 µM
Streptococcus pyogenes; read-out: Minimum Inhibitory Concentration (MIC), Strep. pyogenes 14152
  MIC: 3.25 µM
Streptococcus agalactiae; Strep. agalactiae 14150
  IC50: 250 ± 60 nM
Streptococcus agalactiae; Strep. agalactiae 14151
  IC50: 330 ± 60 nM
Streptococcus agalactiae; Strep. agalactiae 14153
  IC50: 240 ± 40 nM
Streptococcus agalactiae; read-out: Minimum Inhibitory Concentration (MIC), Strep. agalactiae 14150
  MIC: 0.35 µM
Streptococcus agalactiae; read-out: Minimum Inhibitory Concentration (MIC), Strep. agalactiae 14151
  MIC: 4.03 µM
Streptococcus agalactiae; read-out: Minimum Inhibitory Concentration (MIC), Strep. agalactiae 14153
  MIC: 0.36 µM
S. epidermidis; S. epidermidis 14069
  IC50: 800 ± 100 nM
S. epidermidis; S. epidermidis 14085
  IC50: 800 ± 100 nM
S. epidermidis; S. epidermidis 14093
  IC50: 1300 ± 200 nM
S. epidermidis; S. epidermidis 14134
  IC50: 1700 ± 200 nM
S. epidermidis; S. epidermidis 14143
  IC50: 2700 ± 100 nM
S. epidermidis; read-out: Minimum Inhibitory Concentration (MIC), S. epidermidis 14069
  MIC: 6.58 µM
S. epidermidis; read-out: Minimum Inhibitory Concentration (MIC), S. epidermidis 14085
  MIC: 4 µM
S. epidermidis; read-out: Minimum Inhibitory Concentration (MIC), S. epidermidis 14093
  MIC: 8.38 µM
S. epidermidis; read-out: Minimum Inhibitory Concentration (MIC), S. epidermidis 14134
  MIC: 11.4 µM
S. epidermidis; read-out: Minimum Inhibitory Concentration (MIC), S. epidermidis 14143
  MIC: > 12.5 µM
